This note sets out measurements from PMC6487176, “Specific Binding Peptides from Rv3632: A Strategy for Blocking Mycobacterium tuberculosis Entry to Target Cells?” (BioMed Research International, 2019).

Where no end group is shown, it is not given here.

Holding throughout (type): cell-based
Data set [1] has as its system Mtb H37Rv entry to A549 alveolar epithelial cells. Description: microbe, parasite or virus in culture. The following applies: Mycobacterium tuberculosis, A549, 480 h, inhibition control at 30 μM, triplicate, read-out: inhibition of mycobacterial entry to A549 epithelial cells.
Data set [2] concerns Mtb H37Rv entry to U937 macrophages. Description: microbe, parasite or virus in culture. The following applies: Mycobacterium tuberculosis, U-937, 480 h, inhibition control at 30 μM, triplicate, read-out: inhibition of mycobacterial entry to U937 monocyte-derived macrophages.
Data set [3] has as its system U937 macrophage line. The following applies: MTT; peptide 20 and 200 μM in 1X PBS, 2 h; 5 x 10^4 cells/well; absorbance 570 nm. The procedure: Rv3632 peptides' cytotoxic effect was evaluated by viability assay involving MTT (3- (4,5-dimethylthiazol-2-yl) -2,5-diphenyltetrazolium bromide) tetrazolium reduction, where 5 x 10^4 cells/well were incubated for 2 hours with each peptide at 20 and 200 μM in 1X PBS, using the previously mentioned incubation conditions for the invasion assay; 10% SDS was used as cytotoxicity control. After incubation time had elapsed, 10μL MTT were added to each well and left for 12 hours; the formazan crystals so formed were dissolved with sodium dodecyl sulfate (SDS) for reading absorbance at 570nm on a spectrophotometer (Multiskan GO, Thermo Scientific). Multiskan GO (v. 3.2) software was used for analysing the data.

Usually inhibition stands for the drop in the measured response relative to a control, in per cent. Turning to `C=C1[C@@H](C)[C@H]2[C@H](Cc3ccccc3)NC(=O)[C@]23[C@H](OC(C)=O)/C=C/[C@@](C)(O)C(=O)[C@@H](C)C/C=C/[C@H]3[C@@H]1O` [Cytochalasin, Cytochalasin D], the inhibition at 30 µM in data set [1] was 60%; in data set [2] it was 80%.
With TLSTYMRFKDLELRYARIAR [compound 39255], the “cytotoxic effect on the U937 macrophage line, result in words” value in data set [3] was “without having a cytotoxic effect”.
